According to US20100189797A1, “ORAL ANTIDEPRESSANT FORMULATION” (priority 2002, published 2010):

Legend:
[1] = system: stressed rats; test: Tests made on rats: activity level of stressed rats; format: in vivo; conditions: 5 mg fluoxetine per kg and/or 50 mg ASA per kg, unstressed control 30, stressed 2
Description: Four groups of rats have been stressed. One group of rats remain unstressed so as to serve as control.
After being stressed, the rats of the first group received a dose of 50 mg ASA per kg. The second group of rats received no treatment. The third group of rats received 5 mg fluoxetine per kg, and the fourth group of rats received simultaneously 5 mg fluoxetine+50 mg ASA per kg.
The treatment was continued during 3 weeks.
In said test, the doses of ASA and fluoxetine have been adapted for rats.

[2] = system: volunteers; test: Informal tests on volunteers: oral ASA dose with oral antidepressant; format: in vivo, human; conditions: oral ASA less than 50 mg with an antidepressant
Description: From said tests and informal tests made on volunteers, in which after (just after, less than 5 minutes after) and prior oral administration of an antidepressant, a dose of ASA was orally administered, it appears that the oral dose of ASA had to be lowered to less than 50 mg, especially between 5 and 50 mg.
From this test, it seems that the antidepressant action could already be achieved in less than 7 days, and even in less than 3 to 4 days, although when not using low dose of ASA, the antidepressant action is for example of at least 4 weeks for SSRI.

[3] = system: SSRI responding human; test: Higher dose of ASA administered to SSRI responding human; format: in vivo; conditions: ASA dose of 100 mg

| Compound | activity after 1 week of treatment [1] | activity after three weeks of treatment [1] | bleeding [2] | influence on the time of onset of antidepressant action [3] |
| --- | --- | --- | --- | --- |
| CNCCC(Oc1ccc(C(F)(F)F)cc1)c1ccccc1 (racemic) [fluoxetine, (±)-N-methyl-3-phenyl-3-[(α-α-α-trifluoro-p-tolyl)oxy] propylamine] | no increase at all of the activity | about 25 |  |  |
| CC(=O)Oc1ccccc1C(=O)O [ASA, acetyl salicylic acid] | no increase at all of the activity | no improvement of activity | no bleeding was observed | no influence or even to have a negative influence |
